The values below come from PMC11163866 (Journal of medicinal chemistry, 2024).

Data set [1] in a line: In vitro metabolic stability in human liver microsomes. The format is in vitro ADME. Conditions: 1 μM; 0.5 mg/mL microsomes; up to 60 min.
A short description of data set [2]: In vitro metabolic stability in mouse liver microsomes. The format is in vitro ADME. The note with it: 1 μM; 0.5 mg/mL microsomes; up to 60 min. In general terms: Liver microsomes are vesicles of endoplasmic reticulum, rich in cytochrome P450 enzymes.

Regarding `COC1=CC(c2ccc(Cc3ccc(OC)cc3)[nH]2)=N/C1=C\NC12CC3CC(CC(C3)C1)C2.Cl` [compound 123, (3s,5s,7s)-N-((Z)-(4'-Methoxy-5-(4-methoxybenzyl)-1H,5'H-[2,2'-bipyrrol]-5'-ylidene)methyl)adamantan-1-amine Hydrochloride], the “metabolic stability (t1/2, min) vs HLM” value in data set [1] was greater than 60.0 min. In data set [2], the “metabolic stability (t1/2, min) vs MLM” value is listed as greater than 60.0 min. As for `CCCCCCN/C=C1\N=C(c2ccc[nH]2)C=C1OC.Cl` [compound 42], the “metabolic stability (t1/2, min) vs HLM” value in data set [1] is 17.1 min. The “metabolic stability (t1/2, min) vs MLM” value in data set [2] amounted to 10.2 min. In the case of `Cc1ccc(N/C=C2\N=C(c3ccc[nH]3)C3=C2CCCC3)cc1.Cl` [compound 105, (Z)-N-((3-(1H-Pyrrol-2-yl)-4,5,6,7-tetrahydro-1H-isoindol-1-ylidene)methyl)-4-methylaniline Hydrochloride], the “metabolic stability (t1/2, min) vs HLM” value in data set [1] came to 42.1 min. For the same compound, the “metabolic stability (t1/2, min) vs MLM” value in data set [2] stood at 31.2 min. For the compound `COC1=CC(c2ccc[nH]2)=N/C1=C\NCC1CCCCCC1.Cl` [compound 46, (Z)-1-Cycloheptyl-N-((4'-methoxy-1H,5'H-[2,2'-bipyrrol]-5'-ylidene)methyl)-methanamine Hydrochloride], the “metabolic stability (t1/2, min) vs HLM” value in data set [1] came to 18.6 min. Also, the “metabolic stability (t1/2, min) vs MLM” value in data set [2] was determined as 12.3 min. In the same order, the values of `C(/NC1CCCCCC1)=C1/N=C(c2ccc[nH]2)C2=C1CCCC2.Cl` [compound 102] are greater than 60.0 min and 9.71 min. In the same order, the values of `COC1=CC(c2ccc[nH]2)=N/C1=C\Nc1ccc2c(c1)OCCO2.Cl` [compound 63, (Z)-N-((4'-Methoxy-1H,5'H-[2,2'-bipyrrol]-5'-ylidene)methyl)-2,3-dihydrobenzo[b][1,4]dioxin-6-amine Hydrochloride] are greater than 60.0 min and 15.8 min. In the same order, the values of `COc1ccc(Oc2ccc(N/C=C3\N=C(c4ccc[nH]4)C4=C3CCCC4)cc2)cc1.Cl` [compound 108, (Z)-N-((3-(1H-Pyrrol-2-yl)-4,5,6,7-tetrahydro-1H-isoindol-1-ylidene)methyl)-4-(4-methoxyphenoxy)aniline Hydrochloride] are greater than 60.0 min and greater than 60.0 min. Turning to `COC1=CC(c2ccc[nH]2)=N/C1=C\N[C@H]1CC[C@H](C(F)(F)F)CC1.Cl` [compound 48, (1r,4r)-N-((Z)-(4'-Methoxy-1H,5'H-[2,2'-bipyrrol]-5'-ylidene)methyl)-4-(trifluoromethyl)cyclohexan-1-amine Hydrochloride], the “metabolic stability (t1/2, min) vs HLM” value in data set [1] is recorded as 13.0 min. Moreover, the “metabolic stability (t1/2, min) vs MLM” value in data set [2] is 15.4 min. In the same order, the values of `COC1=CC(c2ccc[nH]2)=N/C1=C\Nc1cccc(OC(F)(F)F)c1.Cl` [compound 58, (Z)-N-((4'-Methoxy-1H,5'H-[2,2'-bipyrrol]-5'-ylidene)methyl)-3-(trifluoromethoxy)aniline Hydrochloride] are greater than 60.0 min and 15.8 min.

Regarding `Cc1ccc(Oc2ccc(N/C=C3\N=C(c4ccc[nH]4)C4=C3CCCC4)cc2)cc1.Cl` [compound 109, (Z)-N-((3-(1H-Pyrrol-2-yl)-4,5,6,7-tetrahydro-1H-isoindol-1-ylidene)methyl)-4-(p-tolyloxy)aniline Hydrochloride], in data set [1], the “metabolic stability (t1/2, min) vs HLM” value is greater than 60.0 min. Moreover, in data set [2], the “metabolic stability (t1/2, min) vs MLM” value was greater than 60.0 min. Turning to `COC1=CC(c2ccc(Cc3ccc(OC)cc3)[nH]2)=N/C1=C\NC1CCCC1.Cl` [compound 119, (Z)-N-((4'-Methoxy-5-(4-methoxybenzyl)-1H,5'H-[2,2'-bipyrrol]-5'-ylidene)methyl)cyclopentanamine Hydrochloride], the “metabolic stability (t1/2, min) vs HLM” value in data set [1] came out at 11.7 min. Besides, in data set [2], the “metabolic stability (t1/2, min) vs MLM” value is given as 10.4 min. Taken in the same sequence, the figures for `COC1=CC(c2ccc[nH]2)=N/C1=C\NC1CCCCCC1.Cl` [compound 45] were 52.1 min and 8.20 min.

As to `CCc1c[nH]c(C2=N/C(=C\NC3CCCCCC3)C(C)=C2C)c1.Cl` [compound 113, (Z)-N-((4-Ethyl-3',4'-dimethyl-1H,5'H-[2,2'-bipyrrol]-5'-ylidene)methyl)cycloheptanamine Hydrochloride], the “metabolic stability (t1/2, min) vs HLM” value in data set [1] is listed as greater than 60.0 min. Regarding `Cl.FC(F)(F)Oc1ccc(C2=CC(c3ccc[nH]3)=N/C2=C\NC23CC4CC(CC(C4)C2)C3)cc1` [compound 80, (3s,5s,7s)-N-((Z)-(4'-(4-(Trifluoromethoxy)phenyl)-1H,5'H-[2,2'-bipyrrol]-5'-ylidene)methyl)adamantan-1-amine Hydrochloride], the “metabolic stability (t1/2, min) vs HLM” value in data set [1] is greater than 60.0 min. Moreover, the “metabolic stability (t1/2, min) vs MLM” value in data set [2] is given as greater than 60.0 min. On to `Cl.Fc1cc(F)cc(OC2=CC(c3ccc[nH]3)=N/C2=C\NC23CC4CC(CC(C4)C2)C3)c1` [compound 74, (3s,5s,7s)-N-((Z)-(4'-(3,5-Difluorophenoxy)-1H,5'H-[2,2'-bipyrrol]-5'-ylidene)methyl)adamantan-1-amine Hydrochloride], for which, in data set [1], the “metabolic stability (t1/2, min) vs HLM” value is listed as greater than 60.0 min. Also, in data set [2], the “metabolic stability (t1/2, min) vs MLM” value is greater than 60.0 min. Consider `Cl.Clc1ccc(OC2=CC(c3ccc[nH]3)=N/C2=C\NC23CC4CC(CC(C4)C2)C3)cc1` [compound 77, (3s,5s,7s)-N-((Z)-(4'-(4-Chlorophenoxy)-1H,5'H-[2,2'-bipyrrol]-5'-ylidene)methyl)adamantan-1-amine Hydrochloride], for which the “metabolic stability (t1/2, min) vs HLM” value in data set [1] is greater than 60 min. Also, the “metabolic stability (t1/2, min) vs MLM” value in data set [2] is given as greater than 60 min. As to `COC1=CC(c2ccc[nH]2)=N/C1=C\Nc1ccc(Cl)c(Cl)c1.Cl` [compound 60, (Z)-3,4-Dichloro-N-((4'-methoxy-1H,5'H-[2,2'-bipyrrol]-5'-ylidene)methyl)aniline Hydrochloride], the “metabolic stability (t1/2, min) vs HLM” value in data set [1] came out at 56.2 min. Besides, the “metabolic stability (t1/2, min) vs MLM” value in data set [2] was 46.7 min. `COC1=CC(c2ccc[nH]2)=N/C1=C\Nc1ccc(C)cc1.Cl` [compound 52, (Z)-N-((4'-Methoxy-1H,5'H-[2,2'-bipyrrol]-5'-ylidene)methyl)-4-methylaniline Hydrochloride]: the “metabolic stability (t1/2, min) vs MLM” value in data set [2] is on record as 28.9 min. `COC1=CC(c2ccc[nH]2)=N/C1=C\Nc1ccc(Cl)c(OC)c1.Cl` [compound 61, (Z)-4-Chloro-3-methoxy-N-((4'-methoxy-1H,5'H-[2,2'-bipyrrol]-5'-ylidene)methyl)aniline Hydrochloride]: the “metabolic stability (t1/2, min) vs HLM” value in data set [1] was greater than 60.0 min. Besides, in data set [2], the “metabolic stability (t1/2, min) vs MLM” value is recorded as greater than 60.0 min.

`CC1=C/C(=C\NC23CC4CC(CC(C4)C2)C3)N=C1c1ccc[nH]1.Cl` [compound 88]: in data set [1], the “metabolic stability (t1/2, min) vs HLM” value is given as greater than 60.0 min. Also, the “metabolic stability (t1/2, min) vs MLM” value in data set [2] worked out at 17.6 min.

Turning to `Cl.FC(F)(F)Oc1ccc(OC2=CC(c3ccc[nH]3)=N/C2=C\NC23CC4CC(CC(C4)C2)C3)cc1` [compound 70, (3s,5s,7s)-N-((Z)-(4'-(4-(Trifluoromethoxy)phenoxy)-1H,5'H-[2,2'-bipyrrol]-5'-ylidene)methyl)adamantan-1-amine Hydrochloride], the “metabolic stability (t1/2, min) vs HLM” value in data set [1] is reported as greater than 60.0 min. Moreover, the “metabolic stability (t1/2, min) vs MLM” value in data set [2] is recorded as greater than 60.0 min.

With `CCc1c(C)[nH]c(C2=N/C(=C\NC34CC5CC(CC(C5)C3)C4)C(C)=C2C)c1C.Cl` [compound 116], the “metabolic stability (t1/2, min) vs HLM” value in data set [1] is recorded as greater than 60.0 min. Besides, the “metabolic stability (t1/2, min) vs MLM” value in data set [2] was determined as 29.0 min.

With `CC1=C(C)/C(=C/NC2CCCCCC2)N=C1c1ccc[nH]1.Cl` [compound 90], the “metabolic stability (t1/2, min) vs HLM” value in data set [1] is on record as 45.1 min. In data set [2], the “metabolic stability (t1/2, min) vs MLM” value turned out to be 11.2 min. In the same order, the values of `CC1=C(C)/C(=C/NC2CCCCCC2)N=C1c1ccc(CC(C)C)[nH]1.Cl` [compound 111, (Z)-N-((5-Isobutyl-3',4'-dimethyl-1H,5'H-[2,2'-bipyrrol]-5'-ylidene)methyl)cycloheptanamine Hydrochloride] are greater than 60.0 min and greater than 60.0 min. In the same order, the values of `COC1=CC(c2ccc(-c3ccc(OC)cc3)[nH]2)=N/C1=C\NC1CCCCCC1.Cl` [compound 118, (Z)-N-((4'-Methoxy-5-(4-methoxyphenyl)-1H,5'H-[2,2'-bipyrrol]-5'-ylidene)methyl)cycloheptanamine Hydrochloride] are greater than 60.0 min and greater than 60.0 min. For `CCc1ccc(C2=N/C(=C\NC3CCCCCCC3)C(C)=C2C)[nH]1.Cl` [compound 112, (Z)-N-((5-Ethyl-3',4'-dimethyl-1H,5'H-[2,2'-bipyrrol]-5'-ylidene)methyl)cyclooctanamine Hydrochloride], the “metabolic stability (t1/2, min) vs HLM” value in data set [1] is greater than 60.0 min. Further, the “metabolic stability (t1/2, min) vs MLM” value in data set [2] is given as greater than 60.0 min. Regarding `C(/NCC1CCCCCC1)=C1/N=C(c2ccc[nH]2)C2=C1CCCC2.Cl` [compound 104, (Z)-1-(3-(1H-Pyrrol-2-yl)-4,5,6,7-tetrahydro-1H-isoindol-1-ylidene)-N-(cycloheptylmethyl)methanamine Hydrochloride], in data set [1], the “metabolic stability (t1/2, min) vs HLM” value is greater than 60.0 min. For the same compound, the “metabolic stability (t1/2, min) vs MLM” value in data set [2] is greater than 60.0 min. For the compound `COC1=CC(c2ccc(Cc3ccc(OC)cc3)[nH]2)=N/C1=C\NC1CCCCCCC1.Cl` [compound 122, (Z)-N-((4'-Methoxy-5-(4-methoxybenzyl)-1H,5'H-[2,2'-bipyrrol]-5'-ylidene)methyl)cyclooctanamine Hydrochloride], in data set [1], the “metabolic stability (t1/2, min) vs HLM” value was 50.8 min. For the same compound, the “metabolic stability (t1/2, min) vs MLM” value in data set [2] was found to be 16.5 min. In the same order, the values of `COC1=CC(c2ccc[nH]2)=N/C1=C\Nc1ccc(F)c(OC)c1.Cl` [compound 62, (Z)-4-Fluoro-3-methoxy-N-((4'-methoxy-1H,5'H-[2,2'-bipyrrol]-5'-ylidene)methyl)aniline Hydrochloride] are greater than 60.0 min and 19.1 min.
